Laboratory results taken from patent US5106863A, “Substituted imidazole and pyridine derivatives” (Ortho Pharmaceutical Corporation, priority 1990, dated 1992).
Counter-ions that a name gives are not always drawn. Like-named read-outs stand apart in the source and are kept apart here.

Legend:
[1] = tested on: stimulated parietal cells; assay: Isolated Parietal Cell Assay: inhibition of 14C-aminopyrine accumulation in stimulated parietal cells; format: cell-based, rabbit; conditions: 37° C.
Procedure: Isolated Parietal Cell Assay Using the procedures described in Batzri, S. et al., Biochemica et Biophysica Acta 508, 328 (1978), and Soll, H., Am. J. Physiol. 238, […] (1980), the example compounds were tested for their ability to inhibit ^14 C-aminopyrine accumulation in stimulated parietal cells. Parietal cells were isolated from the fundic mucosa of rabbit stomachs by a four-stage collagenese digestion process. The supernatant fraction from the last two stages of this process contain the individual parietal cells. This cell suspension was centrifuged and reconstituted in a modified Hank's buffer to contain 1-2×10^6 cells/ml. […] […] […] The flasks were incubated in a shaking water bath at 37° C. and gassed with 95% O2, 5% CO2 for 20 minutes. Three aliquots were then taken from each flask, and cell pellets were collected by centrifugation. The pellets were then solubilized with Protosol (NEN) and the radioactivity determined by liquid scintillation spectrometry.

[2] = target: T1, H^+ /K^+ ATPase (Oryctolagus cuniculus, UniProt P27112); assay: Isolated H^+ /K^+ ATPase Assay: inhibition of K+ stimulated response in vesicular membranes from rabbit gastric mucosa; format: biochemical; conditions: 10 min preincubation, 15 min at 37° C.
T1 construct: microsomes prepared from a crude homogenate of rabbit gastric mucosa using differential centrifugation; from tissue; host or cells: rabbit gastric mucosa (microsomes, vesicular membranes)
T1 sequence (P27112 2-1035 limits assumed): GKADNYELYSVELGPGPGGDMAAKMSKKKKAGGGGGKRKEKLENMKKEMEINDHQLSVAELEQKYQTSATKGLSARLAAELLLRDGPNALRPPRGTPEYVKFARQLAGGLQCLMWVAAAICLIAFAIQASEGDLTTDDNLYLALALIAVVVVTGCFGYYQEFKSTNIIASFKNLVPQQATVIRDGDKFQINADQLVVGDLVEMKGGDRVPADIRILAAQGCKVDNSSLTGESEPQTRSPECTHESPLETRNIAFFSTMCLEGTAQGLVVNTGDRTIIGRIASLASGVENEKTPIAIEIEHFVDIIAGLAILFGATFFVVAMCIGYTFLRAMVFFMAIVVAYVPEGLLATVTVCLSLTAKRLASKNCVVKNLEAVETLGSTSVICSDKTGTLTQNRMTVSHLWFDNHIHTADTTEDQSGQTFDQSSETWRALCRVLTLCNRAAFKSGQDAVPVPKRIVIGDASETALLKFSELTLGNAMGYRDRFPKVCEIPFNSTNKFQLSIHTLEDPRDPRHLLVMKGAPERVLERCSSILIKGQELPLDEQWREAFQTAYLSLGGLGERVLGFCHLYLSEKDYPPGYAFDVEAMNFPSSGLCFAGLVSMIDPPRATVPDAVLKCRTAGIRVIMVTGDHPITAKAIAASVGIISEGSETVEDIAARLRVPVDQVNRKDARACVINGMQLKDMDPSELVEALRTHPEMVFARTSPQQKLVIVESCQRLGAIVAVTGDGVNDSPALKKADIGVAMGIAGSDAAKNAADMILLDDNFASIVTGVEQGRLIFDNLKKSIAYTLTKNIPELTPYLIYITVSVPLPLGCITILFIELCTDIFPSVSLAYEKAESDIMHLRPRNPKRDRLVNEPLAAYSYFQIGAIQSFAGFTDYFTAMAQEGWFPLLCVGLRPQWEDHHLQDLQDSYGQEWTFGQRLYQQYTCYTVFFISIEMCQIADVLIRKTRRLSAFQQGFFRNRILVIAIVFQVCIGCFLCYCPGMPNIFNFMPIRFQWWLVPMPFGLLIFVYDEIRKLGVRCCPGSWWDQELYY
T1 sequence (P18597 whole entry partner): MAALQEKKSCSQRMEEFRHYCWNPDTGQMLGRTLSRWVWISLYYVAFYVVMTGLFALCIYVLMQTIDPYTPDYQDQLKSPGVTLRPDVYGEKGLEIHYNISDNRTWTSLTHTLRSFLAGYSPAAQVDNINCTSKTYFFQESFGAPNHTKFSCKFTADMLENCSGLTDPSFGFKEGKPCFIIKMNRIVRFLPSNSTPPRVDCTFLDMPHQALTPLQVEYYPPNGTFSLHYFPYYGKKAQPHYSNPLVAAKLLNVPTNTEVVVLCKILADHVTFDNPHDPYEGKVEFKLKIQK
Procedure: Isolated H^+ /K^+ ATPase Assay
Using the procedures described in Eibl, H. et al., Analytical Biochemistry 30, 51 (1969), Ganser, A. L. et al., Biochem. Biophys. Acta 307, 169 (1973), and Beil, W. et al., Br. J. Pharmac. 82, 651 (1984), the example compounds were tested for their ability to inhibit the H^+ /K^+ ATPase enzyme in the vesicular membranes from rabbit gastric mucosa. The H^+ /K^+ ATPase enzyme activity is present in microsomes prepared from a crude homogenate of rabbit gastric mucosa using differential centrifugation.
Assays were conducted in duplicate tubes in a 1 mL reaction volume consisting of 50 mM Tris buffer, 2mM MgCl2, ±10 mM KCl, 10 μl of example compound in dimethylsulfoxide and 20-30 μg of protein. The tubes were preincubated for 10 minutes in a 37° C. shaking water bath before the substrate, (Na2 ATP) was added. The mixture was then incubated for 15 minutes at 37° C. The reaction was stopped with 1 mL of 14% TCA and the tubes were centrifuged at 2000 rpm for 10 minutes.
The amount of inorganic phosphate (Pi) present in each sample was compared to a potassium phosphate standard curve.

[3] = Oryctolagus cuniculus, 20 min, DcAMP, read-out: Antisecretory Activity in Parietal Cell Assay, DcAMP (IC50)
[4] = Oryctolagus cuniculus, 20 min, HI, histamine-stimulated, read-out: Antisecretory Activity in Parietal Cell Assay, HI (IC50)

IC50 ([1]; DcAMP, 20 minutes, read-out: Antisecretory Activity in Parietal Cell Assay, DcAMP (IC50)) [nM]	IC50 ([1]; HI, histamine-stimulated, 20 minutes, read-out: Antisecretory Activity in Parietal Cell Assay, HI (IC50)) [nM]	IC50 [2] [nM]	IC50 [1, 3] [nM]	IC50 [1, 4] [nM]	Molecule
1600	430	10000			5 (and 6)-Chloro-2-methyl-1-(3,7-dimethyl-2,6(E)-octadienyl)-1H-1,3-benzimidazoleMonohydrochloride.1/4H2 O [Example 20]
		72000	33300	40000	CC(C)=CCCC(C)CC[S+]([O-])c1nc2ccccc2[nH]1 (single isomer, unassigned; (+)) [Example 8, (+)-2-[(3,7-Dimethyl-6-octen-1-yl)sulfinyl]-1H-1,3-benzimidazole Monooxalate]
			2150	1300	CC(C)=CCC/C(C)=C/CSc1nc2ccccc2[nH]1 [Example 1, 2-[(3,7-Dimethyl-2,6(E)-octadienyl)-thio]-1H-1,3-benzimidazole]
		5000	3500	2300	CC(C)=CCC/C(C)=C/CSc1nc2cc(Cl)ccc2[nH]1 [Example 2, 5-Chloro-2-[(3,7-dimethyl-2,6(E)-octadienyl)-thio]-1H-1,3-benzimidazole]
		5600	2300	3100	CC(C)=CCC/C(C)=C/CSc1nc2cc(F)c(Cl)cc2[nH]1 [Example 3, 6-Chloro-5-fluoro-2-[(3,7-dimethyl-2,6(E)-octadienyl)thio]-1H-1,3-benzimidazole.1/4Hydrate]
			2100	700	COc1ccc2[nH]c(SC/C=C(\C)CCC=C(C)C)nc2c1 [Example 4, 2-[(3,7-Dimethyl-2,6(E)-octadienyl)thio]-5-methoxy-1H-1,3-benzimidazole Monooxalate]
		3200	19000	4000	COc1c(C)cnc(Cn2c(SC/C=C(\C)CCC=C(C)C)nc3ccccc32)c1C [Example 5, 1-(3,5-Dimethyl-4-methoxy-2-pyridylmethyl)-2-[(3,7-dimethyl-2,6(E)-octadienyl)thio]-1H-1,3-benzimidazole Monooxalate Hemihydrate]
			510	460	CC(C)=CCC/C(C)=C/CSc1nc2cc(C(F)(F)F)ccc2[nH]1 [Example 6, 5-Trifluoromethyl-2-[(3,7-dimethyl-2,6(E)-octadienyl)thio]-1H-1,3-benzimidazole]
			2200	2200	CC(C)=CCC[C@H](C)CCSc1nc2ccccc2[nH]1 [Example 7, 3S(+)-2-[(3,7-Dimethyl-6-octen-1-yl)thio]-1H-1,3-benzimidazole]
		3000	1250	2000	COc1c(C)cnc(Cn2c(SCC[C@@H](C)CCC=C(C)C)nc3ccccc32)c1C [Example 9, 1-(3,5-Dimethyl-4-methoxy-2-pyridylmethyl)-2-[(3,7-dimethyl-6-octen-1-yl)thio]-1H-1,3-benzimidazole Monooxalate]
			1100	1700	CC(C)=CCC/C(C)=C\CSc1nc2ccccc2n1C/C=C(/C)CCC=C(C)C [Example 10, 1-(3,7-Dimethyl-2,6(Z)-octadienyl)-2-[(3,7-dimethyl-2,6(Z)-octadienyl)-thio]-1H-1,3-benzimidazole Monooxalate]
			3100	2800	CC(C)=CCC/C(C)=C\CSc1nc2ccccc2[nH]1 [Example 11, 2-[(3,7-Dimethyl-2,6(Z)-octadienyl)-thio]-1H-1,3-benzimidazole.1/4Hydrate]
			1000	1900	CCCCCCCCSc1nc2ccccc2[nH]1 [Example 12, 2-Octylthio-1H-1,3-benzimidazole]
				1300	CCCCCCCCSc1nc2cc(OC)ccc2[nH]1 [Example 13, 5-Methoxy-2-octylthio-1H-1,3-benzimidazole Hemioxalate Monohydrate]
				2400	CCCCCCCCSc1nc2cc(Cl)ccc2[nH]1 [Example 14, 5-Chloro-2-octylthio-1H-1,3-benzimidazole]
		9600	2900	2400	CC(C)=CCC/C(C)=C/CSCc1ccccn1 [Example 15, 2-[3,7-Dimethyl-2,6(E)octadienylthiomethyl]pyridine.1/10 Hydrate]
			1100	1700	CC(C)=CCC[C@H](C)CCSc1nccn1C [Example 17, 3S-2-[(3,7-Dimethyl-6-octen-1-yl)thio]-1-methylimidazole]
		28000	860	800	COc1ccc2ncn(C/C=C(\C)CCC=C(C)C)c2c1 [Example 18, 1-(3,7-Dimethyl-2,6(E)-octadienyl)-6-methoxy-1H-1,3-benzimidazole Monooxalate]
		15000	3300	2000	CC(C)=CCC/C(C)=C/Cn1c(CO)nc2ccccc21 [Example 19, 1-[3,7-Dimethyl-2,6(E)-octadienyl]-2-hydroxymethyl-1H-1,3-benzimidazole Hydrochloride.1/4H2 O]
		860	3000	40000	CSc1ccc(-c2nc3ccccc3n2C/C=C(\C)CCC=C(C)C)cc1 [Example 21, 1-(3,7-Dimethyl-2,6(E)-octadienyl)-2-(4-methylthiophenyl)-1H-1,3-benzimidazole Monooxalate.H2 O]
